Measurements as given in PubChem BioAssay (NCI).
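Dose response: 5 concentrations. Exposure: 48 h. Format: 96-well plates. Endpoint: linear interpolation; highest concentration if not reached. TGI denotes the concentration required for complete inhibition of growth.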

What was measured:
Experiment in all cases: NCI anticancer screen, dose series, 48 h
DMS 273 small cell lung = test system: DMS 273 small cell lung
SF-539 CNS = test system: SF-539 CNS
COLO 205 colon = test system: COLO 205 colon
KM12 colon = test system: KM12 colon
HT29 colon = test system: HT29 colon
MOLT-4 leukemia = test system: MOLT-4 leukemia
K-562 leukemia = test system: K-562 leukemia
SK-OV-3 ovarian = test system: SK-OV-3 ovarian
NCI-H23 lung = test system: NCI-H23 lung
A549 NSCLC = test system: A549 NSCLC
HOP-92 NSCLC = test system: HOP-92 NSCLC
SNB-75 CNS = test system: SNB-75 CNS
SK-MEL-5 melanoma = test system: SK-MEL-5 melanoma
SF-268 CNS = test system: SF-268 CNS
HOP-62 NSCLC = test system: HOP-62 NSCLC
SF-295 CNS = test system: SF-295 CNS
HL-60(TB) leukemia = test system: HL-60(TB) leukemia
SW-620 colon = test system: SW-620 colon
HCT-116 colon = test system: HCT-116 colon
SK-MEL-28 melanoma = test system: SK-MEL-28 melanoma
OVCAR-5 ovarian = test system: OVCAR-5 ovarian
786-0 renal = test system: 786-0 renal
MALME-3M melanoma = test system: MALME-3M melanoma
M19-MEL melanoma = test system: M19-MEL melanoma
LOX IMVI melanoma = test system: LOX IMVI melanoma
OVCAR-8 ovarian = test system: OVCAR-8 ovarian
HOP-18 NSCLC = test system: HOP-18 NSCLC
NCI-H460 lung = test system: NCI-H460 lung
EKVX NSCLC = test system: EKVX NSCLC
RPMI-8226 leukemia = test system: RPMI-8226 leukemia
DMS 114 small cell lung = test system: DMS 114 small cell lung
RXF 393 renal = test system: RXF 393 renal
OVCAR-3 ovarian = test system: OVCAR-3 ovarian
SNB-78 CNS = test system: SNB-78 CNS
KM20L2 colon = test system: KM20L2 colon
SK-MEL-2 melanoma = test system: SK-MEL-2 melanoma
UO-31 renal = test system: UO-31 renal
NCI-H522 lung = test system: NCI-H522 lung
XF 498 CNS = test system: XF 498 CNS
IGROV1 ovarian = test system: IGROV1 ovarian
TK-10 renal = test system: TK-10 renal
U251 CNS = test system: U251 CNS
UACC-257 melanoma = test system: UACC-257 melanoma
ACHN renal = test system: ACHN renal
DLD-1 colon = test system: DLD-1 colon
LXFL 529 NSCLC = test system: LXFL 529 NSCLC
SNB-19 CNS = test system: SNB-19 CNS
CCRF-CEM leukemia = test system: CCRF-CEM leukemia
HCC-2998 colon = test system: HCC-2998 colon
A498 renal = test system: A498 renal
UACC-62 melanoma = test system: UACC-62 melanoma
SR leukemia = test system: SR leukemia
CAKI-1 renal = test system: CAKI-1 renal
HCT-15 colon = test system: HCT-15 colon
OVCAR-4 ovarian = test system: OVCAR-4 ovarian
SN12C renal = test system: SN12C renal
M14 melanoma = test system: M14 melanoma
NCI-H226 lung = test system: NCI-H226 lung

Measured: TGI

O=[N+]([O-])c1cccc(C2=NN(c3ccccc3)C3c4cc(Br)ccc4OCC23)c1 (centres undefined)
not listed: UACC-62 melanoma | SR leukemia | CAKI-1 renal | HCT-15 colon | OVCAR-4 ovarian | SN12C renal | M14 melanoma | NCI-H226 lung
> 100 µM: all other assays above

O=C1NC2=C(CCCCC/C2=N\O)C12CCCCCC2
not listed: KM20L2 colon | HCC-2998 colon | NCI-H226 lung
> 100 µM: all other assays above

CCc1cccc(C)c1NC(=O)CCc1nc(=S)[nH][nH]1
not listed: DMS 273 small cell lung | COLO 205 colon | SNB-75 CNS | A498 renal
> 100 µM: all other assays above

CC1=N/C(=C\c2ccc(/C=C3/N=C(C)OC3=O)cc2)C(=O)O1
not listed: MOLT-4 leukemia | SF-295 CNS | HL-60(TB) leukemia | OVCAR-5 ovarian | NCI-H460 lung | EKVX NSCLC | SR leukemia | NCI-H226 lung
> 100 µM: all other assays above
